# Measured values reported in ChEMBL document CHEMBL1144673, “Discovery of novel alpha-glucosidase inhibitors based on the virtual screening with the homology-modeled protein structure” (Bioorg Med Chem, 2008).
# Target: Alpha-glucosidase MAL12 (Saccharomyces cerevisiae S288c) (UniProt P53341)
# Assay: Inhibition of bakers yeast alpha-glucosidase at 50 uM
# Alpha-glucosidase MAL12 (Saccharomyces cerevisiae S288c), sequence (P53341 whole entry): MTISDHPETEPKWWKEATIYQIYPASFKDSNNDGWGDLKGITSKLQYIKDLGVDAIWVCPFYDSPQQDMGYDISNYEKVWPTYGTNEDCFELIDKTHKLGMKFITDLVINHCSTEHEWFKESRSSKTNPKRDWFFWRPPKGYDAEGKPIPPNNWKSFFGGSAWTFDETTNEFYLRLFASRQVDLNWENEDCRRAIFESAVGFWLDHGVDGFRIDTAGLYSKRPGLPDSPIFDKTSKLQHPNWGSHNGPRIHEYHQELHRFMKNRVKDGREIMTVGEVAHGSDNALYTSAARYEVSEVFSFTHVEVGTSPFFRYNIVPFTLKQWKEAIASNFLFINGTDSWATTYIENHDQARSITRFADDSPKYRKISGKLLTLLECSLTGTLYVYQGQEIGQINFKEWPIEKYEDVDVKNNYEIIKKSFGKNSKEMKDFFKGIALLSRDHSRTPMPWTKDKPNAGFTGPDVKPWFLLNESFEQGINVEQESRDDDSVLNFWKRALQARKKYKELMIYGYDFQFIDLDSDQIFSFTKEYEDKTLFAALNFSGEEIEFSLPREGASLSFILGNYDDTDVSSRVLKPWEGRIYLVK
row,SMILES,inhibition [%]
1,COc1ccc(N2C(=O)NC(=O)/C(=C\c3cn(CC(=O)Nc4ccccc4)c4ccccc34)C2=O)cc1,50.6
2,O=C(CSc1nc2ccccc2c(=O)n1-c1ccccc1)NCc1ccccc1,50.9
3,O=C1NC(=O)N(c2ccccc2F)C(=O)/C1=C\c1ccccc1OCc1ccc(C(=O)O)cc1,54
4,N#CC1=C(N)n2c(s/c(=C\c3ccc(O)cc3)c2=O)=C(C(N)=O)C1c1ccc(O)cc1 (stereo not drawn),59.2
5,O=C(CSc1nnc(COc2cccc3cccnc23)n1-c1ccccc1)c1ccc(Cl)cc1,66.5
6,Cc1ccc(-n2c(SCC(=O)Nc3ccc(F)c(F)c3)nnc2-c2ccccc2)cc1,63.1
7,N#CC1=C(N)n2c(s/c(=C\c3ccccc3F)c2=O)=C(C(N)=O)C1c1ccccc1F (stereo not drawn),62.2
8,Cn1cc(/C=C/C(=O)NC(=O)c2ccccc2O)c2ccccc21,71.4
9,O=C(Nc1nccs1)c1c(O)c2ccccc2n(Cc2ccccc2)c1=O,52.3
10,O=C(Nc1ccccc1O)c1ccc(Oc2cccc(C(=O)Nc3ccccc3O)c2)cc1,70.1
11,Cc1ccc(/N=c2\cc(-c3ccc4c(c3)OCO4)oc3ccc(O)cc23)cc1C,58
12,Oc1ccc(-c2nnc(Nc3cccc(O)c3)c3ccccc23)cc1,61.4
13,O=C(Cn1c(=O)n(CC(=O)NCc2ccccc2)c2cc(Cl)ccc21)NCc1ccccc1,62.4
